This note sets out measurements from PMC11831560, “Development of the Pyrido[2,3-d]pyrimidin-7(8H)-one Scaffold toward Potent and Selective NUAK1 Inhibitors” (ACS Medicinal Chemistry Letters, 2025).

Values joined by “and” are separate entries in the source; they are usually repeats but may differ in a detail not shown here. Equal values may be shown once.

For series [1], the target named is T1, NUAK1 (Homo sapiens, UniProt O60285).
T1 sequence (O60285 1-661): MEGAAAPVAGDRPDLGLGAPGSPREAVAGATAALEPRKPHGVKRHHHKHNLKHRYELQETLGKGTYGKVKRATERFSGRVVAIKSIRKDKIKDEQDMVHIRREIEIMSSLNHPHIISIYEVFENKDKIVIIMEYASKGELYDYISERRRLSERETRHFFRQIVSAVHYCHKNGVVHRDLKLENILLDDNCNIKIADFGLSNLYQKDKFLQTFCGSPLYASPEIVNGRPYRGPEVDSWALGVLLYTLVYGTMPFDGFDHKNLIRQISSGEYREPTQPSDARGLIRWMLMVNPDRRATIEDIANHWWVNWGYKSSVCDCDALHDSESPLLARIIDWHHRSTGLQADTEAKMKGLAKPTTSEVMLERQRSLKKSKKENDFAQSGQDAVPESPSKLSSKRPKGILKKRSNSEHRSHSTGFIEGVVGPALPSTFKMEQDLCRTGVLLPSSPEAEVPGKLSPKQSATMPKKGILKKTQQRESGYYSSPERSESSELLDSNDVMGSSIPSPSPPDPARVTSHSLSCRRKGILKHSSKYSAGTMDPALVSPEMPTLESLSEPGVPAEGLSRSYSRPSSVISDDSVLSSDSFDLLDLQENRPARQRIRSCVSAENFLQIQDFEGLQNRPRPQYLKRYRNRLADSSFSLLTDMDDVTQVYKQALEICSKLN
Kind of series: ADP-Glo biochemical assay NUAK1. The following applies: ADP-Glo assay; for IC50: read-out: NUAK1 pIC50 (converted). The arrangement: purchased MRC PPU. As for the experimental part:
(§1) Biological experimental procedures
(§2) ADP-Glo biochemical assays
(§3) Protein kinase activity in the presence of inhibitor compounds was determined by ADP-Glo assay (Promega), as previously described.1,2 Compounds were serialised using a Labcyte Echo 520 and transferred to 384 well plates (Greiner 784201) followed by the addition 5 µL of substrate containing peptide and ATP at Km in buffer (see Table S6). 5 µL of purified protein was added and the plate was incubated for 60 minutes at room temperature (ng/well; see Table S6). 3 µL of assay mixture was transferred using an Integra Viaflo384 into a white low volume plate (Greiner 781904) prior to the addition of 3 µL of ADP-Glo Reagent™ for a further 40 minute incubation. After incubation with 6 µL of Kinase Detection Reagent for 30 minutes, plate luminescence was read (Pherastar FSX, BMG […]
(§4) 30 mM HEPES pH7.4, 3 mM MgCl2, 3 mM MnCl2, 1.2 mM DTT, 0.01% CHAPS
(§5) Table S6: Conditions for protein kinase ADP-Glo assays
(§6) ATP AT Peptide Peptide Enzyme Enzyme Assay Buffe Min.
(§7) Protein conc. P Peptide name conc. supplier amount supplier vol. r na […]
(§8) NUAK1 µM µM Sakamototide 50 µM Merck 6.7 ng PPU 10 µl A 6
(§9) A µM µM Sakamototide 100 µM Merck 1 ng PPU 10 µl B 2 […]
(§10) aMin. n: Minimum number of technical replicates per compound
A general note: ADP-Glo first removes unused ATP, then detects ADP through luciferase.

The next series has as its target T2, MARK3 (Homo sapiens, UniProt P27448).
T2 construct: purchased MRC PPU
Kind of series: ADP-Glo biochemical assay MARK3. The following applies: for MARK3 pIC50 / IC50: ADP-Glo assay; for IC50: read-out: MARK3 pIC50 (converted). As for the experimental part:
as §1, §2, §3, §4, §5, §6, §7, §8, §9, §10

Series [2] in a line: Microsomal stability, mouse. The format is in vitro ADME. The following applies: mouse liver microsomes; read-out: MLM t1/2. As for the experimental part:
All single point assay determinations carried out in duplicate.
ADMET and PK experimental methods
Microsomal stability: analysis was performed by Cyprotex Discovery. […]
On the technique in general: Liver microsomes are a subcellular fraction often used to study metabolism.

Series [3] addresses T3, AMPKA α1β2γ1 (Homo sapiens, UniProt O43741+P54619+Q13131).
T3 construct: purchased MRC PPU
Kind of series: ADP-Glo biochemical assay AMPKA. The following applies: ADP-Glo assay; read-out: AMPKA pIC50 (converted). As for the experimental part:
as §1, §2, §3, §4, §5, §6, §7, §8, §9, §10

In series [4] the target is T4, AMPKA α1β2γ1 (Homo sapiens, UniProt Q13131).
T4 construct: purchased MRC PPU
T4 sequence (Q13131 11-559 limits assumed): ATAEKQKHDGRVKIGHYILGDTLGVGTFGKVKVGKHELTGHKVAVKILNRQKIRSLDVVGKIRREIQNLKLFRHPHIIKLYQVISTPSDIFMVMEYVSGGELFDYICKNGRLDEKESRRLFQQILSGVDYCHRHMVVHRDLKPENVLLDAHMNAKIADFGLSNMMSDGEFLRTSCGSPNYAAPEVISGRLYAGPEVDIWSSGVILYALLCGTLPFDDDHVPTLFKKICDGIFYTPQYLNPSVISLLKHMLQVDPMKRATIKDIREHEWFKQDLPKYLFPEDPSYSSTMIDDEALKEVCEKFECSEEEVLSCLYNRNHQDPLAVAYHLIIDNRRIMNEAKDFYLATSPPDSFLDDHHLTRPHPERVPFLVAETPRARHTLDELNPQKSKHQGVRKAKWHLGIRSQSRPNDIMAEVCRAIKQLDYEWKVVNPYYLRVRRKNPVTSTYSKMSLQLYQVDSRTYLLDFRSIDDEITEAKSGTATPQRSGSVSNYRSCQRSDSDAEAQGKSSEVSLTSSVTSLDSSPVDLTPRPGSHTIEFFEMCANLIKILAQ
T4 sequence (O43741 whole entry partner): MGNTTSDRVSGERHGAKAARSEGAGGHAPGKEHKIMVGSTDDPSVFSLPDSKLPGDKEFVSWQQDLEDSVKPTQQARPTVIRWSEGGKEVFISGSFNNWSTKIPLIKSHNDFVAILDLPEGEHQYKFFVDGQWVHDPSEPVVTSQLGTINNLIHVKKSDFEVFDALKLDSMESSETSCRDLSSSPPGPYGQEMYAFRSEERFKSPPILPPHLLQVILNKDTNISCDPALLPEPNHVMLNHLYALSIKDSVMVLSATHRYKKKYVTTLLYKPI
T4 sequence (P54619 whole entry partner): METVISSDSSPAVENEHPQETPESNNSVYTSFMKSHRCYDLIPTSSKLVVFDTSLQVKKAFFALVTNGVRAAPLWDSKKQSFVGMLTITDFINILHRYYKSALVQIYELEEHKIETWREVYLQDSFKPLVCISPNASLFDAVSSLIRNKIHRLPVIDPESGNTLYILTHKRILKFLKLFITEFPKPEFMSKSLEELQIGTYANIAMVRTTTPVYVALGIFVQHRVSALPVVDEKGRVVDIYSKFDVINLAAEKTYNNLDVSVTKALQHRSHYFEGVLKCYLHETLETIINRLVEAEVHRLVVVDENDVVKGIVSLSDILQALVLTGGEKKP
The series is described as follows: ADP-Glo biochemical assay AMPKA. The following applies: AMPKA IC50/NUAK1 IC50. As for the experimental part: as §1, §2, §3, §4, §5, §6, §7, §8, §9, §10

The target of series [5] is T1, NUAK1. Kind of series: NanoBRET target engagement assay, HEK293 cells. The following applies: cell-based NanoBRET target engagement assay. The protocol: NanoBRET® target engagement assay
The binding of compounds to NUAK1 in intact cells was assessed using an NanoBRET® TE Intracellular Kinase Assay (Promega N2501). HEK293 cells transiently transfected with NanoLuc®- NUAK1 Fusion Vector (Promega NV1831) were incubated with 10 nL K5 tracer (provided in the kit, Promega N2501) and 40 nL of the test compounds in 100% DMSO in a white low volume non-binding 384 assay plate (Grenier Bio One 784904) for 90 min at 37 °C. After incubation, followed by cooling for 15 min at room temperature, 4 µL of the Intracellular TE Nano-Glo ® Substrate/Inhibitor (Promega N2160) was added to each well. The plate was read using a Pherastar FSX plate reader (BMG Labtech).
Minimum number of 2 technical replicates per compound.
Activity pIC50 values and standard error of the mean (SEM) were estimated using a 4-parameter fit (Dotmatics). The SEM for all reported data was 0.2 or lower. See Experimental Procedures for minimum number of replicates per compound. Each experiment included a Standard compound whose pIC50 value was compared to a quality control chart. If the Standard pIC50 value fell outside the range of pIC50 +/-3 standard deviation, then the experiment was invalidated. […]
On the technique in general: In BRET a luciferase serves as donor, and the signal depends on an acceptor being close.

T2 sequence (P27448 whole entry): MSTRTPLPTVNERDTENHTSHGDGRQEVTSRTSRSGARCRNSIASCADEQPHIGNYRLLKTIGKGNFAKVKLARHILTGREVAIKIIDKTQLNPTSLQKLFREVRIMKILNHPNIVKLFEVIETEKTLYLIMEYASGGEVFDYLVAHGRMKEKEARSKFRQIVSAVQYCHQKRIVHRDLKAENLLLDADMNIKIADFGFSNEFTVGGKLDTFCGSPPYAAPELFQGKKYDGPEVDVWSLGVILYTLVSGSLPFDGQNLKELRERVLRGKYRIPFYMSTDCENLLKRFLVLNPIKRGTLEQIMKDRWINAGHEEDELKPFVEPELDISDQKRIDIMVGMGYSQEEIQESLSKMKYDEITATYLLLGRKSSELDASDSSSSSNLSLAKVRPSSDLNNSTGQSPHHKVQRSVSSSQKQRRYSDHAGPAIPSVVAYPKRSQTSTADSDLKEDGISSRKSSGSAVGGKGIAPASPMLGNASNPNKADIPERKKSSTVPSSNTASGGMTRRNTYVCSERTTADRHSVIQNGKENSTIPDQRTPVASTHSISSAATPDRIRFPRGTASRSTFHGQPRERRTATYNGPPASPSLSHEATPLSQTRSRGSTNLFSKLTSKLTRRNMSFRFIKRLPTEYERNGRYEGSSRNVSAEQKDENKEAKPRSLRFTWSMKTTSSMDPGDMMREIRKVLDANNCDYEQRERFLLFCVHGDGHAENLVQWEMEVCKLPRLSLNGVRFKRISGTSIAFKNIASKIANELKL
T3 sequence (Q13131 11-559 limits assumed): as the sequence (Q13131 11-559 limits assumed) above
T3 sequence (O43741 whole entry partner): as the sequence (O43741 whole entry partner) above
T3 sequence (P54619 whole entry partner): as the sequence (P54619 whole entry partner) above

As for `CN1C2CC1CN(c1ccc(Nc3ncc4ccn(CC5CCOC5)c4n3)cc1)C2` (centres unmarked) [Compound 29], the “NUAK1 pIC50” value at NUAK1 [1] stood at 8.1. At MARK3, the “MARK3 pIC50” value was 5.3 and the “MARK3 Fold selectivity IC50/NUAK1 IC50” value came to 641 fold. The half-life at 1 µM in series [2] was 12.8 min. For the same molecule, the IC50 on AMPKA α1β2γ1 [3] was 5.62 µM. Besides, the “AMPKA Fold selectivity IC50/NUAK1 IC50” value on AMPKA α1β2γ1 [4] turned out to be 708 fold. Further, at NUAK1 [5], the “NUAK1 cell TE pIC50” value is 6.4.
Regarding `CN1CCN(c2ccc(Nc3ncc4c(n3)N(C3CCCC3)C(=O)C(C)(C)O4)cc2)CC1` [Compound 6], the “NUAK1 pIC50” value on NUAK1 [1] stood at 6.8. Further, on MARK3, the “MARK3 pIC50” value is recorded as 5.9 and the “MARK3 Fold selectivity IC50/NUAK1 IC50” value is reported as 8 fold. The “NUAK1 cell TE pIC50” value on NUAK1 [5] was below 4.6.
Consider `COc1cc(Nc2ncc3c(C)cc(=O)n(C4CCCC4)c3n2)cc(OC)c1OC` [Compound 15], for which the “NUAK1 pIC50” value on NUAK1 [1] is 8.21 and 8.2. For the same molecule, at MARK3, the “MARK3 pIC50” value was found to be 5.8 and the “MARK3 Fold selectivity IC50/NUAK1 IC50” value is recorded as 288 fold. For the same molecule, on AMPKA α1β2γ1 [3], the IC50 was above 75.9 µM. In addition, the “AMPKA Fold selectivity IC50/NUAK1 IC50” value at AMPKA α1β2γ1 [4] is above 12000 fold. On NUAK1 [5], the “NUAK1 cell TE pIC50” value is on record as 6.6.
With `COc1cc(Nc2ncc3c(n2)N(C2CCCC2)C(=O)C(C)(C)O3)cc(OC)c1OC` [Compound 19], at NUAK1 [1], the “NUAK1 pIC50” value is recorded as 7.4. On MARK3, the “MARK3 pIC50” value was determined as 5.6 and the “MARK3 Fold selectivity IC50/NUAK1 IC50” value came out at 57 fold. In addition, in series [2], the half-life at 1 µM was 1.4 min. In addition, the “NUAK1 cell TE pIC50” value at NUAK1 [5] is “inactive”. For the same molecule, at NUAK1 [5] (read-out: NUAK1 cell TE pIC50 (converted)), the IC50 is above 25.1 µM.
Regarding `CN1C2CC1CN(c1ccc(Nc3ncc4ccn(C5CCOC5)c4n3)cc1)C2` (centres unmarked) [Compound 30], the IC50 on NUAK1 [1] is 0.0158 µM. Besides, at MARK3, the IC50 was 6.31 µM and the “MARK3 Fold selectivity IC50/NUAK1 IC50” value is given as 388 fold.
For the molecule `Cc1cc(=O)n(CC(O)CO)c2nc(Nc3ccc(N4CC5CC(C4)N5C)cc3)ncc12` (centres unmarked) [Compound 22], on NUAK1 [1], the “NUAK1 pIC50” value is recorded as 7.0. For the same molecule, at MARK3, the “MARK3 pIC50” value is reported as 5.7 and the “MARK3 Fold selectivity IC50/NUAK1 IC50” value turned out to be 20 fold.
For `CN1C2CC1CN(c1ccc(Nc3ncc4ccn(C5COC5)c4n3)cc1)C2` [Compound 31] the same measures were 7.8, 5.4 and 263 fold.
As for `Cc1nc(Nc2cnn(C3CCNCC3)c2)nc2c1N(C)C(=O)c1cc3ccccc3cc1N2C` [Compound 2, HTH-01-015, reference compound], at NUAK1 [5], the “NUAK1 cell TE pIC50” value is recorded as below 4.3.
On to `COCCn1c(=O)cc(C)c2cnc(Nc3ccc(N4CC5CC(C4)N5C)cc3)nc21` [Compound 21], for which, at NUAK1 [1], the “NUAK1 pIC50” value is 6.7. On MARK3, the “MARK3 pIC50” value came to 5.2 and the “MARK3 Fold selectivity IC50/NUAK1 IC50” value was determined as 35 fold.
As for `COc1cc(N2CCN(C)CC2)ccc1Nc1ncc2c(C)cc(=O)n(C3CCCC3)c2n1` [Compound 12], the “NUAK1 pIC50” value on NUAK1 [1] was 6.6. For the same molecule, at MARK3, the “MARK3 pIC50” value is below 4.6 and the “MARK3 Fold selectivity IC50/NUAK1 IC50” value is listed as above 89 fold.
With `CC(=O)c1c(C)c2cnc(Nc3ccc(N4CCNCC4)cn3)nc2n(C2CCCC2)c1=O` [Compound 14, Palbociclib, reference compound], the IC50 on NUAK1 [1] is 20 µM.
With `COc1cc(Nc2ncc3cc(C#N)c(=O)n(C4CCCC4)c3n2)cc(OC)c1` [Compound 17], the “NUAK1 pIC50” value on NUAK1 [1] is 7.4. Further, at MARK3, the “MARK3 pIC50” value is below 4.6 and the “MARK3 Fold selectivity IC50/NUAK1 IC50” value is listed as above 676 fold. The “NUAK1 cell TE pIC50” value on NUAK1 [5] is below 4.6.
For the molecule `COc1nn(C)cc1Nc1ncc2c(C)cc(=O)n(C3CCCC3)c2n1` [Compound 18], the “NUAK1 pIC50” value on NUAK1 [1] turned out to be 6.5. For the same molecule, at MARK3, the “MARK3 pIC50” value is 4.9 and the “MARK3 Fold selectivity IC50/NUAK1 IC50” value is reported as 40 fold.
As to `Cc1cc(=O)n(C2CCCC2)c2nc(Nc3ccc(N4CCNCC4)cn3)ncc12` [Compound 13], on NUAK1 [1], the IC50 is 0.316 µM. In addition, at MARK3, the IC50 is above 3.16 µM and the “MARK3 Fold selectivity IC50/NUAK1 IC50” value is above 11 fold.
